Reference: US20190328891A1, “MEDICAL PREPARATION WITH A CARRIER BASED ON HYALURONAN AND/OR DERIVATIVES THEREOF, METHOD OF PREPARATION AND USE THEREOF” (CONTIPRO A.S., priority 2016, published 2019)
Square brackets hold non-standard residues; d marks the D form. Nle = CCCC[C@H](N)C(=O)O

Columns and labels:
[1] = test system: Primary human fibroblasts (NHDF); assay: In vitro cell adhesion on the fibre comprising RGD motif; format: cell-based; conditions: fibre of native HYA with bonded peptide; DiI stained NHDF, 10^5 cells; fluorescent microscope; monitored for 7 days of cultivation (FIG. 6)
Protocol: The fibre of native HYA comprising RGD motif, prepared according to the procedure described in Example 14, and control fibres were cut into 1 cm pieces and transferred onto a non-adhesive panel with 24 wells. Primary human fibroblasts (NHDF) were pre-marked with the fluorescent dye DiI (Exmax/Emmax 549/565) and inoculated, in the amount of 10^5 cells, into the wells filled with the tested samples. Then the panel was shaken by a shaker (5 hrs/160 rpm) to keep the cells in suspension, under cultivation conditions (37° C., 5% CO2). After 24 h of cultivation the fibres were transferred into a well with fresh cultivation medium. Then the cells were observed and detected by fluorescent microscope Nikon Ti-Eclipse with the use of TRITC filter (Exmax/Emmax, 549/565). The fibroblasts proliferation was monitored for 7 days of cultivation.

injured skin = conditions: rabbits, alginate bandage containing the peptide; in comparison with Ser-Ile-Lys-Val-Ala-Val and Val-Pro-Val-Ala-Pro-Gly anchored on alginate bandage; cited from earlier work

| Substance | adhesion and proliferation of human dermal fibroblasts on the fibre [1] | epithelization (injured skin) | volume of regenerated tissue (injured skin) |
| --- | --- | --- | --- |
| H-Ahx-Ahx-Arg-Gly-Asp-Nle-O-HYA [H-Ahx-Ahx-Arg-Gly-Asp-Nle-OH] | did not support the cell adhesion | – | – |
| H-Arg-Gly-Asp-Gly-Gly-Gly-Nle-O-HYA (H-RGDGGG[Nle]-{O‑hyaluronan}) [H-Arg-Gly-Asp-Gly-Gly-Gly-Nle-OH, RGD peptide linked to native hyaluronan fibre via triglycine linker] | did not support the cell adhesion | – | – |
| H-Gly-Gly-Gly-Arg-Gly-Asp-Nle-O-HYA (H-GGGRGD[Nle]-{O‑hyaluronan}) [H-Gly-Gly-Gly-Arg-Gly-Asp-Nle-OH, peptide with triglycine and RGD anchored to native hyaluronan fibre] | did not support the cell adhesion | – | – |
| Ser-Ile-Arg-Val-X-Val-X-Pro-Gly (where X=Ala or Gly) | – | significantly higher | larger |
